pIC50: −log10 of the molar value. Where two headings read alike, the source gives them in different places.
Key:
human Gal-1 (hGal-1) = human Gal-1 (hGal-1) (Homo sapiens (Human), UniProt P09382); test: competitive binding assay: biotinylated hGal-1 binding to microplate-adsorbed asialofetuin (ASF); conditions: Table 15; read-out: IC50 (Galectin-1 inhibition)
Description: Inhibition data of the epimers R and S of selected Examples are also listed.
(§1) Evaluation of Compound Inhibitory Activity (IC50)
The inhibitory activity of compounds is determined in competitive binding assays. This spectrophotometric assay measures the binding of biotinylated human Gal-3 (hGal-3) or human Gal-1 (hGal-1), respectively, to a microplate-adsorbed glycoprotein, asialofetuin (ASF) (Proc Natl Acad Sci USA. 2013 Mar. 26; 110(13):5052-7.).
Briefly, compounds are serially diluted in DMSO (working dilutions). ASF-coated 384 well plates are supplemented with 22.8 μL/well of biotinylated hGal-3 or hGal-1 in assay buffer (i.e. 300-1000 ng/mL biotinylated hGal-3 or hGal-1) to which 1.2 μL of compound working dilutions are added and mixed.
(§2) Plates are incubated for 3 hours at 4° C., then washed with cold assay buffer (3×50 uL), incubated for 1 hour with 25 μL/well of a streptavidin-peroxidase solution (diluted in assay buffer to 80 ng/mL) at 4° C., followed by further washing steps with assay buffer (3×50 uL). Finally, 25 μL/well of ABTS substrate is added.
(§3) The calculated IC50 values may fluctuate depending on the daily assay performance. Fluctuations of this kind are known to those skilled in the art. IC50 values from several measurements are given as mean values.

human Gal-3 (hGal-3) = human Gal-3 (hGal-3) (Homo sapiens (Human), UniProt P17931); test: competitive binding assay: biotinylated hGal-3 binding to microplate-adsorbed asialofetuin (ASF)
Description: If not explicitly mentioned otherwise, the inhibition data refer to the binding of biotinylated human Gal-3 (hGal-3).
as §1
The inhibitory activity of compounds is determined in competitive binding assays.
Briefly, compounds are serially diluted in DMSO (working dilutions).
as §2, §3

[1] = Gal-3 inhibition, binding of biotinylated hGal-3 to ASF, mean values, read-out: IC50

Chain of human Gal-3 (hGal-3) (P17931 whole entry): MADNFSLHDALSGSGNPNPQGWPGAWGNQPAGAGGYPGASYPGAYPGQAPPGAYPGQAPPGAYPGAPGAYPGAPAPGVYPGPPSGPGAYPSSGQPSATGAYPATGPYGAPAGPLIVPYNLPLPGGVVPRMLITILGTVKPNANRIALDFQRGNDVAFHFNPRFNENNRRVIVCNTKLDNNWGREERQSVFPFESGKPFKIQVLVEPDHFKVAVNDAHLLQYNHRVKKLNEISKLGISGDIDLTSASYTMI
Chain of human Gal-1 (hGal-1) (P09382 whole entry): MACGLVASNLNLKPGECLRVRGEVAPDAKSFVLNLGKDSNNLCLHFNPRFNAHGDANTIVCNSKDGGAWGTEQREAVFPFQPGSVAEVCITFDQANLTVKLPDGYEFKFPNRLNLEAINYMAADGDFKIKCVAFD

Compound | pIC50 (human Gal-1 (hGal-1)) | pIC50 (human Gal-3 (hGal-3); [1]) | pIC50 (human Gal-3 (hGal-3); Table 11, read-out: IC50 (Gal-3 inhibition))
Cc1c(F)cccc1[C@H](S[C@@H]1O[C@H](CO)[C@H](O)[C@H](n2cc(-c3cc(F)c(F)c(F)c3)nn2)[C@H]1O)C(C)(C)O (single isomer, unassigned) [Example 2.31.114R.] | 5.14 | 6.74 | 
OCC(S[C@@H]1O[C@H](CO)[C@H](O)[C@H](n2cc(-c3cccc(F)c3)nn2)[C@H]1O)c1ccccc1Br (stereo partly drawn) [Example 1.30.101., (2S,3R,4S,5R,6R)-2-((1-(2-Bromophenyl)-2-hydroxyethyl)thio)-4-(4-(3-fluorophenyl)-1H-1,2,3-triazol-1-yl)-6-(hydroxymethyl)tetrahydro-2H-pyran-3,5-diol] | 5.24 | 5.77 | 
COCC(S[C@@H]1O[C@H](CO)[C@H](O)[C@H](n2cc(-c3cc(F)c(F)c(F)c3)nn2)[C@H]1O)c1ccccc1 (stereo partly drawn) [Example 2.30.100.OMe, (2R,3R,4S,5R,6S)-2-(Hydroxymethyl)-6-((2-methoxy-1-phenylethyl)thio)-4-(4-(3,4,5-trifluorophenyl)-1H-1,2,3-triazol-1-yl)tetrahydro-2H-pyran-3,5-diol, reference compound] | 4.25 | 5.54 | 
CC(C)c1ccccc1C(CO)S[C@@H]1O[C@H](CO)[C@H](O)[C@H](n2cc(-c3cc(F)c(F)c(F)c3)nn2)[C@H]1O (stereo partly drawn) [Example 2.30.105., (2S,3R,4S,5R,6R)-2-((2-Hydroxy-1-(2-isopropylphenyl)ethyl)thio)-6-(hydroxymethyl)-4-(4-(3,4,5-trifluorophenyl)-1H-1,2,3-triazol-1-yl)tetrahydro-2H-pyran-3,5-diol] | 5.76 | 6.40 | 
CC(C)(O)C(S[C@@H]1O[C@H](CO)[C@H](O)[C@H](n2cc(-c3cc(F)c(F)c(F)c3)nn2)[C@H]1O)c1ccccc1 (stereo partly drawn) [Example 2.31.100., (2S,3R,4S,5R,6R)-2-((2-Hydroxy-2-methyl-1-phenylpropyl)thio)-6-(hydroxymethyl)-4-(4-(3,4,5-trifluorophenyl)-1H-1,2,3-triazol-1-yl)tetrahydro-2H-pyran-3,5-diol] | 5.43 | 5.72 | 
Cc1ccccc1C(S[C@@H]1O[C@H](CO)[C@H](O)[C@H](n2cc(-c3cc(F)c(F)c(F)c3)nn2)[C@H]1O)C(C)(C)O (stereo partly drawn) [Example 2.31.102., (2S,3R,4S,5R,6R)-2-((2-Hydroxy-2-methyl-1-(o-tolyl)propyl)thio)-6-(hydroxymethyl)-4-(4-(3,4,5-trifluorophenyl)-1H-1,2,3-triazol-1-yl)tetrahydro-2H-pyran-3,5-diol] | 5.67 | 6.77 | 
Cc1ccccc1[C@@H](S[C@@H]1O[C@H](CO)[C@H](O)[C@H](n2cc(-c3cc(F)c(F)c(F)c3)nn2)[C@H]1O)C(C)(C)O [Example 2.31.102R., (2S,3R,4S,5R,6R)-2-(((R)-2-Hydroxy-2-methyl-1-(o-tolyl)propyl)thio)-6-(hydroxymethyl)-4-(4-(3,4,5-trifluorophenyl)-1H-1,2,3-triazol-1-yl)tetrahydro-2H-pyran-3,5-diol] | 5.85 | 6.92 | 
Cc1ccccc1[C@H](S[C@@H]1O[C@H](CO)[C@H](O)[C@H](n2cc(-c3cc(F)c(F)c(F)c3)nn2)[C@H]1O)C(C)(C)O [Example 2.31.102S., (2S,3R,4S,5R,6R)-2-(((S)-2-Hydroxy-2-methyl-1-(o-tolyl)propyl)thio)-6-(hydroxymethyl)-4-(4-(3,4,5-trifluorophenyl)-1H-1,2,3-triazol-1-yl)tetrahydro-2H-pyran-3,5-diol] | 5.16 | 5.35 | 
Cc1nc(C(S[C@@H]2O[C@H](CO)[C@H](O)[C@H](n3cc(-c4cc(F)c(F)c(F)c4)nn3)[C@H]2O)C(C)(C)O)c(C)s1 (stereo partly drawn) [Example 2.31.123., (2S,3R,4S,5R,6R)-2-((1-(2,5-Dimethylthiazol-4-yl)-2-hydroxy-2-methylpropyl)thio)-6-(hydroxymethyl)-4-(4-(3,4,5-trifluorophenyl)-1H-1,2,3-triazol-1-yl)tetrahydro-2H-pyran-3,5-diol] | 5.76 |  | 
Cc1nc([C@@H](S[C@@H]2O[C@H](CO)[C@H](O)[C@H](n3cc(-c4cc(F)c(F)c(F)c4)nn3)[C@H]2O)C(C)(C)O)c(C)s1 [Example 2.31.123R., (2S,3R,4S,5R,6R)-2-(((R)-1-(2,5-Dimethylthiazol-4-yl)-2-hydroxy-2-methylpropyl)thio)-6-(hydroxymethyl)-4-(4-(3,4,5-trifluorophenyl)-1H-1,2,3-triazol-1-yl)tetrahydro-2H-pyran-3,5-diol] | 5.92 |  | 
Cc1nc([C@H](S[C@@H]2O[C@H](CO)[C@H](O)[C@H](n3cc(-c4cc(F)c(F)c(F)c4)nn3)[C@H]2O)C(C)(C)O)c(C)s1 [Example 2.31.123S., (2S,3R,4S,5R,6R)-2-(((S)-1-(2,5-Dimethylthiazol-4-yl)-2-hydroxy-2-methylpropyl)thio)-6-(hydroxymethyl)-4-(4-(3,4,5-trifluorophenyl)-1H-1,2,3-triazol-1-yl)tetrahydro-2H-pyran-3,5-diol] | 4.53 |  | 
CO[C@@H]1[C@@H](n2cc(-c3cc(F)c(F)c(F)c3)nn2)[C@@H](O)[C@@H](CO)O[C@H]1S[C@H](c1ccccc1C(F)(F)F)[C@]1(O)CCOC(C)(C)C1 [Example 2.43.112RS.I., (2R,3R,4S,5R,6S)-6-(((R)-((S)-4-Hydroxy-2,2-dimethyltetrahydro-2H-pyran-4-yl)(2-(trifluoromethyl)phenyl)methyl)thio)-2-(hydroxymethyl)-5-methoxy-4-(4-(3,4,5-trifluorophenyl)-1H-1,2,3-triazol-1-yl)tetrahydro-2H-pyran-3-ol] | 5.89 |  | 

More lines, now with the values ahead:

pIC50 (human Gal-1 (hGal-1)) | pIC50 (human Gal-3 (hGal-3); [1]) | pIC50 (human Gal-3 (hGal-3); Table 11, read-out: IC50 (Gal-3 inhibition)) | Compound
6.07 |  | 7.15 | CO[C@@H]1[C@@H](n2cc(-c3cc(F)c(F)c(F)c3)nn2)[C@@H](O)[C@@H](CO)O[C@H]1S[C@@H](c1nccc(Cl)c1Cl)C1(O)CCC(F)(F)CC1 (single isomer, unassigned) [Example 2.44.143R.I.]
5.97 |  |  | OC[C@H]1O[C@@H](S[C@H](c2ccccc2Cl)C2(O)CCC(F)(F)CC2)[C@H](O)[C@@H](n2cc(-c3cc(F)c(F)c(F)c3)nn2)[C@H]1O [Example 2.44.111R., (2S,3R,4S,5R,6R)-2-(((R)-(2-Chlorophenyl)(4,4-difluoro-1-hydroxycyclohexyl)methyl)thio)-6-(hydroxymethyl)-4-(4-(3,4,5-trifluorophenyl)-1H-1,2,3-triazol-1-yl)tetrahydro-2H-pyran-3,5-diol]
4.32 |  |  | OC[C@H]1O[C@@H](S[C@@H](c2ccccc2Cl)C2(O)CCC(F)(F)CC2)[C@H](O)[C@@H](n2cc(-c3cc(F)c(F)c(F)c3)nn2)[C@H]1O [Example 2.44.111S., (2S,3R,4S,5R,6R)-2-(((S)-(2-Chlorophenyl)(4,4-difluoro-1-hydroxycyclohexyl)methyl)thio)-6-(hydroxymethyl)-4-(4-(3,4,5-trifluorophenyl)-1H-1,2,3-triazol-1-yl)tetrahydro-2H-pyran-3,5-diol]
7.05 |  |  | CC(C)Cc1c([C@@H](S[C@@H]2O[C@H](CO)[C@H](O)[C@H](n3cc(-c4cc(F)c(F)c(F)c4)nn3)[C@H]2O)C2(O)CCC(F)(F)CC2)noc1C1CC1 [Example 2.44.131 R., (2S,3R,4S,5R,6R)-2-(((R)-(5-Cyclopropyl-4-isobutylisoxazol-3-yl)(4,4-difluoro-1-hydroxycyclohexyl)methyl)thio)-6-(hydroxymethyl)-4-(4-(3,4,5-trifluorophenyl)-1H-1,2,3-triazol-1-yl)tetrahydro-2H-pyran-3,5-diol]
6.66 |  |  | CC(C)Cc1c(C(S[C@@H]2O[C@H](CO)[C@H](O)[C@H](n3cc(-c4cc(F)c(F)c(F)c4)nn3)[C@H]2O)C2(O)CCC(F)(F)CC2)noc1C1CC1 (stereo partly drawn) [Example 2.44.131., (2S,3R,4S,5R,6R)-2-(((5-Cyclopropyl-4-isobutylisoxazol-3-yl)(4,4-difluoro-1-hydroxycyclohexyl)methyl)thio)-6-(hydroxymethyl)-4-(4-(3,4,5-trifluorophenyl)-1H-1,2,3-triazol-1-yl)tetrahydro-2H-pyran-3,5-diol]
6.14 |  |  | CO[C@@H]1[C@@H](n2cc(-c3cc(F)c(F)c(F)c3)nn2)[C@@H](O)[C@@H](CO)O[C@H]1SC(c1ncccc1C)C1(O)CCC2(CCOCC2)CC1 (stereo partly drawn) [Example 2.72.126.I., 9-((((2S,3R,4S,5R,6R)-5-Hydroxy-6-(hydroxymethyl)-3-methoxy-4-(4-(3,4,5-trifluorophenyl)-1H-1,2,3-triazol-1-yl)tetrahydro-2H-pyran-2-yl)thio)(3-methylpyridin-2-yl)methyl)-3-oxaspiro[5.5]undecan-9-ol]
6.80 |  |  | CO[C@@H]1[C@@H](n2cc(-c3cnc(F)c(C)c3)nn2)[C@@H](O)[C@@H](CO)O[C@H]1SC(c1ncccc1C)C1(O)CCC(F)(F)CC1 (stereo partly drawn) [Example 24.44.126.I, (2R,3R,4S,5R,6S)-6-(((4,4-Difluoro-1-hydroxycyclohexyl)(3-methylpyridin-2-yl)methyl)thio)-4-(4-(6-fluoro-5-methylpyridin-3-yl)-1H-1,2,3-triazol-1-yl)-2-(hydroxymethyl)-5-methoxytetrahydro-2H-pyran-3-ol]

— US12404295B2, “(Hetero)aryl-methyl-thio-beta-D-galactopyranoside derivatives” (Idorsia Pharmaceuticals Ltd, priority 2019, dated 2025)
